Patent US10543193B2, “Processes useful for the preparation of 1-[3-(4-bromo-2-methyl-2H-pyrazol-3-yl)-4-methoxy-phenyl]-3-(2,4-difluoro-phenyl)-urea and crystalline forms related thereto” (ARENA PHARMACEUTICALS, INC., priority 2008, dated 2020)
“Also recorded” adds a separate entry of the source.

Key:
[1] = Methyl cellulose optimization: Form I to Form II conversion in water pastes (PXRD); format: physicochemical
Procedure: In a small scintillation vial, 152.13 mg of micronized APD125 Form I, was spiked with sufficient deionized water to make a paste; the weight of the water added, 844.60 mg, was recorded, and the resulting mixture was stirred using a spatula to obtain a paste. The resulting sample, post-collection of an initial PXRD pattern, was capped, wrapped in tinfoil and stored at 40° C. until the next day, when a second PXRD pattern was obtained.
Using another small scintillation vial, 2.1183 g of micronized APD125 Form I, was mixed with 3.3619 g of a 0.5% w/v methyl cellulose to obtain a paste, which was immediately sampled for PXRD analysis to verify starting APD125 solid-state form, post-methyl cellulose addition. The remaining sample in the scintillation vial was split into two portions, placed in capped, parafilm-wrapped scintillation vials, which were then wrapped in tinfoil and stored at 40° C. and room temperature, respectively. PXRD patterns were collected at initial (t=0), 2-day and 16-day time points for each sample.
APD125 micronized Form I/PVP (1:8) blend, weighing 3.0081 g and containing 0.5% w/w methyl cellulose, was mixed with 3.71277 g of water to form a paste. After sampling the paste for an initial PXRD pattern, the remaining paste was split into two portions, placed in capped, parafilm-wrapped scintillation vials, which were then wrapped in tinfoil and stored at 40° C. and room temperature, respectively. PXRD patterns were collected at initial (t=0), 1-day, 7-day and 21-day time points.
For each blend, materials were dispensed (minus magnesium stearate) into a glass vial and blended for about 5 minutes. Magnesium stearate was added and the mixture was blended an additional 2 minutes. The final blend was compacted into standard round concave tablets ( 5/16″ diameter) with a total tablet weight of 200 mg and hardness of 10 kp using a Carver press. For each batch of tablets, several were crushed using a mortar and pestle to obtain a fine powder, from which a small sample was taken for PXRD analysis to confirm the initial APD125 polymorphic form. The remaining powder was weighed into a Qorpak® bottle, and ca. 50% w/w deionized water was added. The resulting mixture was stirred using a micro-spatula to wet the powder and form a paste. A Teflon® lid was screwed on tightly, and the prepared samples were stored in a 40° C. oven.
(§1) PXRD measurements were obtained using a Philips (PANalytical) X'Pert PRO theta/theta diffractometer (EQ 0233) equipped with an X'Celerator RTMS detector and utilizing copper Kα radiation, operating at 45 kV and 40 mA. The instrument radius was 239.5 mm, the mask filter was 20 mm, the soller slit was 0.04 radians, and a nickel filter and sample spinning were used during data acquisition. The application and instrument control software used were X'Pert Data Collector®, version 2.0c and XPERT-PRO®, version 1.6, respectively. The API-based paste samples were scanned from 5° to 40°2θ in continuous mode, using a step size of 0.0167°2θ and a counting time of 40.005 seconds. The tablet granulation samples were scanned from 2° to 15°2θ in continuous mode, using a step size of 0.0167°2θ and a counting time of 1063.625 s.

[2] = Effect of milling and compression upon APD125 Form I (PXRD); format: physicochemical
Procedure: Micronized APD125 Form I, was ground using a mortar and pestle, with samples withdrawn at 1-min, 5-min and 10-min time points for PXRD analyses to evaluate the impact of grinding upon the solid-state form of APD125 Form I. PXRD patterns were obtained pre- and post-milling. Additionally, micronized APD125 Form I, was compressed at 2 kp, 5 kp and 10 kp for 1 min per sample using a Carver press. The samples were then removed from the Carver press and lightly broken up using a mortar and pestle, prior to PXRD analysis to evaluate the impact of compression upon the solid-state form of APD125 Form I. PXRD patterns were obtained pre- and post-compression.
as §1, with “The” for “The API-based paste”, “0.0167°2θ.” for “0.0167°2θ and a counting time of 40.005 seconds. The tablet granulation samples were scanned from 2° to 15°2θ in continuous mode, using a step size of 0.0167°2θ and a counting time of 1063.625 s.”

Healthy Adults = test: Phase 1 trials: waking EEG; format: in vivo, humans
normal volunteers = test: Afternoon nap model of insomnia in normal volunteers; format: in vivo, humans
Description: Sleep onset latency was not decreased by APD125. In the afternoon nap model, APD125 decreased microarousals, the number of sleep stage shifts and number of awakenings after sleep onset.

insomnia patients = test: Phase 2 trial: sleep maintenance; format: in vivo, humans
Description: The data from the APD125 Phase 2 study are consistent with Phase 1 data and support further development of APD125 for the treatment of insomnia patients who have difficulty maintaining sleep.

Row | conversion to Form II (PXRD) ([1]; aqueous 0.5% w/w methyl cellulose, 40° C., after 16 days) | PXRD pattern (FIG. 8 legend) ([1]; aqueous 0.5% w/w methyl cellulose, room temperature and 40° C., after 16 days) | time to conversion to Form II (PXRD) ([1]; paste in water alone at 40° C.) [h] | PXRD pattern (FIG. 9 legend) ([1]; paste in water alone at room temperature and 40° C. after 24 h) | conversion to Form II (PXRD) ([1]; suspended in aqueous 0.5% w/w methyl cellulose, room temperature, 21 days) | Structure (SMILES) | PXRD pattern after compression ([2]; compressed at 2 kp, 5 kp and 10 kp vs uncompressed) | PXRD pattern after grinding ([2]; mortar and pestle, 1 minute, 5 minutes and 10 minutes, listed as micronized APD125 Form I) | dose with maximal effects on waking EEG (Healthy Adults) [mg] | effects on waking EEG (Healthy Adults) | time of peak effects on waking EEG after dosing (Healthy Adults) [h] | Sleep onset latency (normal volunteers) | microarousals, number of sleep stage shifts and number of awakenings after sleep onset (normal volunteers) | slow wave sleep and associated parameters (normal volunteers; primarily during the early part of sleep) | next day cognitive effects (insomnia patients) | measurements of sleep maintenance (insomnia patients; compared to placebo)
1 | no evidence of conversion to Form II | substantially converted to Form II | ≤ 24 | substantially converted to Form II | did not convert to Form II | COc1ccc(NC(=O)Nc2ccc(F)cc2F)cc1-c1c(Br)cnn1C [APD125 Form I, 1-[3-(4-bromo-2-methyl-2H-pyrazol-3-yl)-4-methoxy-phenyl]-3-(2,4-difluoro-phenyl)-urea] | consistent with APD125 Form I; also recorded: all substantially comprise Form I | No significant changes in the PXRD patterns; also recorded: all substantially comprise Form I |  |  |  |  |  |  |  | 
2 |  |  |  |  |  | COc1ccc(NC(=O)Nc2ccc(F)cc2F)cc1-c1c(Br)cnn1C [Compound I, 1-[3-(4-bromo-2-methyl-2H-pyrazol-3-yl)-4-methoxy-phenyl]-3-(2,4-difluoro-phenyl)-urea] |  |  | 40 to 80 | vigilance-lowering effects | 2 to 4 | not decreased | decreased | increased slow wave sleep and associated parameters in a dose-dependent manner | without any limiting next day cognitive effects | statistically significant improvements
